Experimental data from patent US4866069A, “Substance 4181-2 and its derivatives having anti-leukemia activity” (Taiho Pharmaceutical Company, Limited, priority 1986, dated 1989).
In brackets after ≈: the same amount, converted by molar mass.

Experiments:
[1] = Acute toxicity study (up-and-down method); set-up: species or system mice of ddY strain; details: mouse, in vivo, ip, intraperitoneal, male ddY mice, 25 g
Procedure: Male mice of ddY strain (body weight 25 g) were used. Each of Compounds 1-4 was suspended in 0.2% solution of Tween 80 in physiological saline and administered intraperitoneally to the animals. The LD50 values (mg/kg) were determined by the up-and-down method.

leukemia P388 cells = test: Antitumor activity: life span-prolonging effect in mouse leukemia; format: in vivo, BDF1 mice; details: for % Increase in survival time / Mean survival time: 3 mg/kg intraperitoneally, day after i.p. injection of 1×10^6 P388 cells, BDF1 mice; for % Increase in survival time: ((D/D0)-1)×100 vs untreated; for Mean survival time: untreated control 9.3 ± 0.8 days
Procedure: The antitumor activity of Substance 4181-2 and its derivatives was evaluated in terms of the increase in life span. One ×10^6 of leukemia P388 cells were intraperitoneally injected to BDF1 mice. Each group consisted of 6 mice. On the following day, each of Compounds 1-4, suspended in 0.2% solution of Tween 80 in physiological saline, was administered intraperitoneally and the survival time in days was determined. The percent increase in survival time was calculated by means of the following formula.
Percent increase in survival time=((D/D0)-1)×100 wherein D0 stands for the mean survival time (days) in the untreated group and D stands for the mean survival time (days) in the treated group.

[2] = literature statement; cited from earlier work
[3] = tested on: Pseudomonus fluorescens IFO 12180; test: Antimicrobial spectrum (MIC), two-fold serial dilution; format: cell-based; details: nutrient agar medium
Procedure: (§1) The antibacterial and antifungal spectra of Substance 4181-2 were investigated. Using nutrient agar medium for gram-positive and gram-negative bacteria and Sabouraud's agar medium for fungi, the minimal inhibitory concentration (MIC) was determined by a two-fold serial dilution method.

[4] = tested on: Penicillium notatum IFO 4640; test: as above; format: cell-based; details: Penicillium chrysogenum, IFO4640, Sabouraud's agar medium
Procedure: as §1

[5] = tested on: Trichophyton mentagrophytes IFO 5466; test: as above; format: cell-based; details: IFO5466, Sabouraud's agar medium
Procedure: as §1

[6] = tested on: Staphylococcus aureus 209P; test: as above; format: cell-based; details: nutrient agar medium
Procedure: as §1

[7] = tested on: Saccharomyces delbrueckii IAM 12236; test: as above; format: cell-based; details: Torulaspora delbrueckii, IAM12236, Sabouraud's agar medium
Procedure: as §1

[8] = tested on: Candida albicans IFO 1061; test: as above; format: cell-based; details: IFO1061, Sabouraud's agar medium
Procedure: as §1

[9] = tested on: Escherichia coli B IFO 13168; test: as above; format: cell-based; details: IFO13168, nutrient agar medium
Procedure: as §1

[10] = tested on: Aspergillus niger IFO 6341; test: as above; format: cell-based; details: IFO6341, Sabouraud's agar medium
Procedure: as §1

[11] = tested on: Bacillus subtilis ATCC 6633; test: as above; format: cell-based; details: ATCC6633, nutrient agar medium
Procedure: as §1

[12] = tested on: Klebsiella pneumoniae ATCC 10031; test: as above; format: cell-based; details: ATCC10031, nutrient agar medium
Procedure: as §1

[13] = tested on: Proteus vulgalis IFO 3045; test: as above; format: cell-based; details: nutrient agar medium
Procedure: as §1

[14] = tested on: Micrococcus flavus ATCC 10240; test: as above; format: cell-based; details: ATCC10240, nutrient agar medium
Procedure: as §1

[15] = tested on: microorganisms including gram-positive bacteria, gram-negative bacteria and fungi; test: Antimicrobial activity (summary statement); format: cell-based
Procedure: as §1

Structure (SMILES) | LD50 [1] | % Increase in survival time (leukemia P388 cells) | Mean survival time (leukemia P388 cells) | antimicrobial activity (in words) [2] | also measured
COc1cc2oc3c(c(=O)c2cc1OC)C(=O)c1c(ccc2cc4c(c(O)c12)C(=O)N1CCOC1(C)C4)C3=O (stereo not shown) [Compound 3, monomethyl derivative of Substance 4181-2] | ≥ 40 mg/kg | 63% | 15.2 ± 1.7 days |  | 
COc1cc2oc3c(c(=O)c2cc1OC)C(=O)c1c(ccc2cc4c(c(OC(C)=O)c12)C(=O)N1CCOC1(C)C4)C3=O (stereo not shown) [Compound 4, monomethyl monoacetyl derivative of Substance 4181-2] | ≥ 40 mg/kg | 53% | 14.2 ± 0.8 days |  | 
COc1cc2oc3c(O)c4ccc5cc6c(c(O)c5c4c(O)c3c(=O)c2cc1OC)C(=O)N1CCOC1(C)C6 (stereo not shown) [cervinomycin A1] |  |  |  | have antimicrobial activity | 
COc1cc2oc3c(c(=O)c2cc1O)C(=O)c1c(ccc2cc4c(c(O)c12)C(=O)N1CCOC1(C)C4)C3=O (stereo not shown) [Compound 1, Substance 4181-2] | ≥ 40 mg/kg | 94% | 18.0 ± 1.4 days |  | MIC [3]: 0.2 µg/mL (≈ 0.39 µM); MIC [4]: 1.56 µg/mL (≈ 3.04 µM); MIC [5]: 0.78 µg/mL (≈ 1.52 µM); MIC [6]: 0.2 µg/mL (≈ 0.39 µM); MIC [7]: 1.56 µg/mL (≈ 3.04 µM); MIC [8]: 0.39 µg/mL (≈ 0.76 µM); MIC [9]: 1.56 µg/mL (≈ 3.04 µM); MIC [10]: 3.13 µg/mL (≈ 6.1 µM); MIC [11]: 0.2 µg/mL (≈ 0.39 µM); MIC [12]: 3.13 µg/mL (≈ 6.1 µM); MIC [13]: 0.39 µg/mL (≈ 0.76 µM); MIC [14]: 0.2 µg/mL (≈ 0.39 µM); antimicrobial spectrum (in words) [15]: broad antimicrobial spectrum; antitumor activity (in words) (leukemia P388 cells; summary statement): excellent antitumor activity
COc1cc2oc3c(c(=O)c2cc1OC(C)=O)C(=O)c1c(ccc2cc4c(c(OC(C)=O)c12)C(=O)N1CCOC1(C)C4)C3=O (stereo not shown) [Compound 2, diacetyl derivative of Substance 4181-2] | ≥ 40 mg/kg | 59% | 14.8 ± 0.8 days |  | 
COc1cc2oc3c(c(=O)c2cc1OC)C(=O)c1c(ccc2cc4c(c(O)c12)C(=O)N1CCOC1(C)C4)C3=O (stereo not shown) [cervinomycin A2] |  |  |  | have antimicrobial activity | 
